Laboratory results published in PubChem BioAssay AID2060510 (Molecular Pharmacology Branch, DTP, NCI, 2025).

System: 439559-082-T-J2-PDC spheroids viability
Assay: Anticancer human tumor 439559-082-T-J2-PDC patient-derived colon adenocarcinoma cell line growth inhibition [GQUAD]
Details: for IC50: curve of first compound; for viability, T/C: stronger effect = lower value
In short: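 Multi-cell-type spheroids of tumor cells with HUVEC and mesenchymal stem cells, treated with drug combinations. Concentrations descend in half-log steps from near clinical Cmax, or from 10 microM where Cmax is unknown; viability read-out.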

[1] = second compound 0.0316 µM, first compound 0.0316 µM
[2] = second compound 0.0316 µM, first compound 0.1 µM
[3] = second compound 0.0316 µM, first compound 0.316 µM
[4] = second compound 0.0316 µM, first compound 1 µM
[5] = second compound 0.0316 µM, first compound 3.16 µM
[6] = second compound 0.0316 µM, first compound 10 µM
[7] = second compound 0.1 µM, first compound 0.0316 µM
[8] = second compound 0.1 µM, first compound 0.1 µM
[9] = second compound 0.1 µM, first compound 0.316 µM
[10] = second compound 0.1 µM, first compound 1 µM
[11] = second compound 0.1 µM, first compound 3.16 µM
[12] = second compound 0.1 µM, first compound 10 µM
[13] = second compound 0.316 µM, first compound 0.0316 µM
[14] = second compound 0.316 µM, first compound 0.1 µM
[15] = second compound 0.316 µM, first compound 0.316 µM
[16] = second compound 0.316 µM, first compound 1 µM
[17] = second compound 0.316 µM, first compound 3.16 µM
[18] = second compound 0.316 µM, first compound 10 µM
[19] = second compound 1 µM, first compound 0.0316 µM
[20] = second compound 1 µM, first compound 0.1 µM
[21] = second compound 1 µM, first compound 0.316 µM
[22] = second compound 1 µM, first compound 1 µM
[23] = second compound 1 µM, first compound 3.16 µM
[24] = second compound 1 µM, first compound 10 µM
[25] = second compound 3.16 µM, first compound 0.0316 µM
[26] = second compound 3.16 µM, first compound 0.1 µM
[27] = second compound 3.16 µM, first compound 0.316 µM
[28] = second compound 3.16 µM, first compound 1 µM
[29] = second compound 3.16 µM, first compound 3.16 µM
[30] = second compound 3.16 µM, first compound 10 µM
[31] = second compound 10 µM, first compound 0.0316 µM
[32] = second compound 10 µM, first compound 0.1 µM
[33] = second compound 10 µM, first compound 0.316 µM
[34] = second compound 10 µM, first compound 1 µM
[35] = second compound 10 µM, first compound 3.16 µM
[36] = second compound 10 µM, first compound 10 µM
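Also: spheroids exposed to the agents for 7 days before readout.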
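For viability, T/C in this document: percent of luminescence signal in DMSO vehicle wells taken as 100% viability.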

Question: Which IC50 (second compound 0.0316 µM) does the source give for C=CCn1c(=O)c2cnc(Nc3ccc(N4CCN(C)CC4)cc3)nc2n1-c1cccc(C(C)(C)O)n1 + Cc1[nH]c2ccc(F)cc2c1-c1nc2c3cccnc3c3ncccc3c2[nH]1 here?
Answer: Its IC50 is 7.9 µM.

Question: What about the IC50 (second compound 0.1 µM) of the same compound?
Answer: Its IC50 is > 10 µM.

Question: What about the IC50 (second compound 0.316 µM) of the same compound?
Answer: The IC50 was 8.08 µM.

Question: And the IC50 (second compound 1 µM)?
Answer: Its IC50 is 8.33 µM.

Question: What about the IC50 (second compound 3.16 µM) of the same compound?
Answer: The IC50 was 5.74 µM.

Question: What about the IC50 (second compound 10 µM) of the same compound?
Answer: The IC50 was 5.56 µM.

Question: What about the viability, T/C [1] of the same compound?
Answer: Its viability, T/C is 94.2%.

Question: What about the viability, T/C [2] of the same compound?
Answer: Its viability, T/C is 92.7%.

Question: What about the viability, T/C [3] of the same compound?
Answer: The viability, T/C was 97.6%.

Question: What about the viability, T/C [4] of the same compound?
Answer: Its viability, T/C is 101%.

Question: What about the viability, T/C [5] of the same compound?
Answer: The viability, T/C was 115%.

Question: What about the viability, T/C [6] of the same compound?
Answer: The viability, T/C was 37%.

Question: And the viability, T/C [7]?
Answer: Its viability, T/C is 96.6%.

Question: And the viability, T/C [8]?
Answer: The viability, T/C was 88.4%.

Question: And the viability, T/C [9]?
Answer: Its viability, T/C is 103%.

Question: And the viability, T/C [10]?
Answer: Its viability, T/C is 92.9%.

Question: And the viability, T/C [11]?
Answer: Its viability, T/C is 98.5%.

Question: What about the viability, T/C [12] of the same compound?
Answer: Its viability, T/C is 57.4%.

Question: And the viability, T/C [13]?
Answer: The viability, T/C was 97.7%.

Question: What about the viability, T/C [14] of the same compound?
Answer: The viability, T/C was 102%.

Question: And the viability, T/C [15]?
Answer: The viability, T/C was 89%.

Question: And the viability, T/C [16]?
Answer: The viability, T/C was 104%.

Question: What about the viability, T/C [17] of the same compound?
Answer: The viability, T/C was 106%.

Question: What about the viability, T/C [18] of the same compound?
Answer: Its viability, T/C is 38.6%.

Question: And the viability, T/C [19]?
Answer: Its viability, T/C is 107%.

Question: What about the viability, T/C [20] of the same compound?
Answer: The viability, T/C was 99%.

Question: And the viability, T/C [21]?
Answer: Its viability, T/C is 100%.

Question: What about the viability, T/C [22] of the same compound?
Answer: Its viability, T/C is 95.7%.

Question: What about the viability, T/C [23] of the same compound?
Answer: Its viability, T/C is 96.9%.

Question: What about the viability, T/C [24] of the same compound?
Answer: Its viability, T/C is 41.2%.

Question: And the viability, T/C [25]?
Answer: The viability, T/C was 80.5%.

Question: And the viability, T/C [26]?
Answer: Its viability, T/C is 80.2%.

Question: And the viability, T/C [27]?
Answer: The viability, T/C was 78.7%.

Question: What about the viability, T/C [28] of the same compound?
Answer: Its viability, T/C is 75.5%.

Question: What about the viability, T/C [29] of the same compound?
Answer: The viability, T/C was 76.1%.

Question: What about the viability, T/C [30] of the same compound?
Answer: Its viability, T/C is 25.9%.

Question: What about the viability, T/C [31] of the same compound?
Answer: The viability, T/C was 97.4%.

Question: And the viability, T/C [32]?
Answer: Its viability, T/C is 71.8%.

Question: And the viability, T/C [33]?
Answer: Its viability, T/C is 72.6%.

Question: What about the viability, T/C [34] of the same compound?
Answer: Its viability, T/C is 71.3%.

Question: And the viability, T/C [35]?
Answer: Its viability, T/C is 80.4%.

Question: And the viability, T/C [36]?
Answer: The viability, T/C was 20.3%.

Question: CC(C)(O)C1CCC(Nc2ccc3ncc(-c4cccc(C(F)(F)F)c4)n3n2)CC1 (centres undefined) + Cc1[nH]c2ccc(F)cc2c1-c1nc2c3cccnc3c3ncccc3c2[nH]1 was tested. Which IC50 (second compound 0.0316 µM) did it give?
Answer: Its IC50 is > 10 µM.

Question: And the IC50 (second compound 0.1 µM)?
Answer: Its IC50 is 7.93 µM.

Question: What about the IC50 (second compound 0.316 µM) of the same compound?
Answer: The IC50 was > 10 µM.

Question: And the IC50 (second compound 1 µM)?
Answer: The IC50 was 6.31 µM.

Question: What about the IC50 (second compound 3.16 µM) of the same compound?
Answer: The IC50 was 3.21 µM.

Question: What about the IC50 (second compound 10 µM) of the same compound?
Answer: The IC50 was 1.23 µM.

Question: And the viability, T/C [1]?
Answer: The viability, T/C was 99.4%.

Question: And the viability, T/C [2]?
Answer: Its viability, T/C is 85.6%.

Question: And the viability, T/C [3]?
Answer: The viability, T/C was 70.6%.

Question: What about the viability, T/C [4] of the same compound?
Answer: Its viability, T/C is 66%.

Question: And the viability, T/C [5]?
Answer: The viability, T/C was 58.8%.

Question: What about the viability, T/C [6] of the same compound?
Answer: Its viability, T/C is 48.6%.

Question: What about the viability, T/C [7] of the same compound?
Answer: Its viability, T/C is 102%.

Question: What about the viability, T/C [8] of the same compound?
Answer: The viability, T/C was 78%.

Question: And the viability, T/C [9]?
Answer: The viability, T/C was 77.9%.

Question: What about the viability, T/C [10] of the same compound?
Answer: Its viability, T/C is 58.8%.

Question: What about the viability, T/C [11] of the same compound?
Answer: The viability, T/C was 66.2%.

Question: What about the viability, T/C [12] of the same compound?
Answer: Its viability, T/C is 42.9%.

Question: What about the viability, T/C [13] of the same compound?
Answer: Its viability, T/C is 86.3%.

Question: And the viability, T/C [14]?
Answer: The viability, T/C was 76.6%.

Question: And the viability, T/C [15]?
Answer: Its viability, T/C is 62.4%.

Question: And the viability, T/C [16]?
Answer: The viability, T/C was 61.9%.

Question: And the viability, T/C [17]?
Answer: The viability, T/C was 53.6%.

Question: And the viability, T/C [18]?
Answer: Its viability, T/C is 50.1%.

Question: What about the viability, T/C [19] of the same compound?
Answer: Its viability, T/C is 87.1%.

Question: And the viability, T/C [20]?
Answer: Its viability, T/C is 69.1%.

Question: And the viability, T/C [21]?
Answer: Its viability, T/C is 76.4%.

Question: What about the viability, T/C [22] of the same compound?
Answer: Its viability, T/C is 66.3%.

Question: And the viability, T/C [23]?
Answer: Its viability, T/C is 61.4%.

Question: What about the viability, T/C [24] of the same compound?
Answer: Its viability, T/C is 42.5%.

Question: What about the viability, T/C [25] of the same compound?
Answer: Its viability, T/C is 77.8%.

Question: What about the viability, T/C [26] of the same compound?
Answer: Its viability, T/C is 73%.

Question: And the viability, T/C [27]?
Answer: Its viability, T/C is 62.3%.

Question: What about the viability, T/C [28] of the same compound?
Answer: The viability, T/C was 51.3%.

Question: What about the viability, T/C [29] of the same compound?
Answer: Its viability, T/C is 57.7%.

Question: And the viability, T/C [30]?
Answer: The viability, T/C was 41.1%.

Question: What about the viability, T/C [31] of the same compound?
Answer: The viability, T/C was 75.8%.

Question: And the viability, T/C [32]?
Answer: The viability, T/C was 73%.

Question: What about the viability, T/C [33] of the same compound?
Answer: Its viability, T/C is 63.4%.

Question: And the viability, T/C [34]?
Answer: Its viability, T/C is 50.6%.

Question: What about the viability, T/C [35] of the same compound?
Answer: The viability, T/C was 44.5%.

Question: And the viability, T/C [36]?
Answer: Its viability, T/C is 38.2%.
